The record followed here is patent US9168278B2, “Use for cannabinoid” (GW Pharma Limited, priority 2004, dated 2015).

Read-outs that look alike come from different tables or passages of the source.

The EC50 is the concentration giving half of the maximal effect. In general, Ki refers to the equilibrium dissociation constant of an inhibitor or competing ligand from its target.

Assay [1] addresses T1, CB1 receptors (mouse brain membranes) (Mus musculus, UniProt P47746).
T1 construct: membranes prepared from healthy brain tissue, which is densely populated with CB1 but not CB2 receptors; from tissue; host or cells: mouse brain membranes
Put plainly: Radioligand displacement assay, mouse brain membranes. Type of assay: binding. The procedure: Experiments were performed with membranes prepared from healthy brain tissue, which is densely populated with CB1 but not CB2 receptors (reviewed in Howlett et al. 2002).
Binding was initiated by the addition of either the brain membranes (33 μg protein per tube) or the transfected hCB2 cells (25 μg protein per tube).
All assays were performed at 37° C. for 60 min before termination by addition of ice-cold wash buffer (50 mM Tris buffer, 1 mg ml^−1 bovine serum albumin, pH 7.4) and vacuum filtration using a 24-well sampling manifold and GF/B filters that had been soaked in wash buffer at 4° C. for at least 24 h.
Each reaction tube was washed six times with a 1.2 ml aliquot of wash buffer. The filters were oven-dried for 60 min and then placed in 5 ml of scintillation fluid. Radioactivity was quantified by liquid scintillation spectrometry.
Specific binding was defined as the difference between the binding that occurred in the presence and absence of 1 μM unlabelled CP55940. THCV was stored as a stock solution of 10 mM in DMSO, the vehicle concentration in all assay tubes being 0.1% DMSO.
Values are expressed as means and variability as s.e.mean or as 95% confidence limits. […] Its dissociation constant (Ki value) was calculated using the equation of Cheng & Prusoff (1973).
In general terms: Loss of bound radioactivity is the signal in a displacement assay; it reports binding, not function.

Assay [2] concerns the target T2, hCB2 receptors (CHO cells transfected with hCB2) (Homo sapiens, UniProt P34972).
T2 construct: expressed in transfected cells; host or cells: CHO cells
Put plainly: Radioligand displacement assay, CHO-hCB2 cell membranes. The conditions noted are these: Cheng & Prusoff, read-out: mean Ki, displacement of [3H]CP55940 from specific binding sites.

Assay [3] has as its target T3, cannabinoid CB1 receptors (mouse brain membranes) (Mus musculus, UniProt P47746).
T3 construct: membranes prepared from healthy brain tissue, which is densely populated with CB1 but not CB2 receptors; from tissue; host or cells: mouse brain membranes
The experiment in a line: [35S]GTPγS binding assay, mouse brain membranes. Type of assay: biochemical. The conditions noted are these: for Kb: Mean apparent KB, brain membranes, THCV 1000 nM. The procedure: (§1) The assays were carried out with GTPγS binding buffer (50 mM Tris-HCl; 50 mM Tris-Base; 5 mM MgCl2; 1 mM EDTA; 100 mM NaCl; 1 mM DTT; 0.1% BSA) in the presence of [^35S]GTPγS and GDP, in a final volume of 500 μl. Binding was initiated by the addition of [^35S]GTPγS to the tubes. Nonspecific binding was measured in the presence of 30 μM GTPγS.
(§2) The drugs were incubated in the assay for 60 min at 30° C. The reaction was terminated by a rapid vacuum filtration method using Tris buffer (50 mM Tris-HCl; 50 mM Tris-Base; 0.1% BSA), and the radioactivity was quantified by liquid scintillation spectrometry.
The concentrations of [^35S]GTPγS and GDP present in the assay varied depending on whether the assay was conducted with mouse brain or transfected cell membranes.
Additionally, mouse brain membranes were preincubated for 30 minutes at 30° C. with 0.5 U ml^−1 adenosine deaminase to remove endogenous adenosine. Agonists and antagonists were stored as a stock solution of 1 or 10 mM in DMSO, the vehicle concentration in all assay tubes being 0.11% DMSO.
(§3) The apparent dissociation constant (KB) values for antagonism of agonists by THCV in the vas deferens or [^35S]GTPγS binding assay have been calculated by Schild analysis from the concentration ratio, defined as the concentration of an agonist that elicits a response of a particular size in the presence of a competitive reversible antagonist at a concentration, B, divided by the concentration of the same agonist that produces an identical response in the absence of the antagonist.
Mean values have been compared using Student's two-tailed t-test for unpaired data or one-way analysis of variance (ANOVA) followed by Dunnett's test (GraphPad Prism). A P-value <0.05 was considered to be significant.
On the technique in general: Binding of GTPγS marks nucleotide exchange on a G protein.

Assay [4] has as its target T4, transfected cannabinoid CB2 receptors (CHO-hCB2 cell membranes) (Homo sapiens, UniProt P34972).
T4 construct: expressed in transfected cells; host or cells: CHO cells
The experiment in a line: [35S]GTPγS binding assay, CHO-hCB2 cell membranes. Type of assay: biochemical. Here is the method:
The conditions used for measuring agonist-stimulated [^35S]GTPγS binding to transfected cannabinoid CB2 receptors were adapted from those used by MacLennan et al. (1998) and Griffin et al. (1999).
as §1, §2
The concentrations of [^35S]GTPγS and GDP present in the assay varied depending on whether the assay was conducted with mouse brain or transfected cell membranes. […]
Net agonist-stimulated [^35S]GTPγS binding values were calculated by subtracting basal binding values (obtained in the absence of agonist) from agonist-stimulated values (obtained in the presence of agonist) as detailed elsewhere (Ross et al., 1999a). […]

Assay [5] deals with mouse isolated vas deferens. The experiment in a line: Electrically-evoked contractions of the mouse isolated vas deferens. Here is the method:
Experiments were also carried out with the mouse isolated vas deferens, a tissue in which cannabinoid receptor agonists such as R-(+)-WIN55212, CP55940, THC and 2-arachidonoyl ethanolamide (anandamide) can inhibit electrically-evoked contractions (Devane et al., 1992; Pertwee et al., 1995).
Cannabinoid receptor agonists are thought to inhibit the electrically evoked contractions by acting on prejunctional neuronal cannabinoid CB1 receptors to inhibit release of the contractile neurotransmitters, ATP, (acting on postjunctional P2X purinoceptors), and noradrenaline, (acting on postjunctional α1-adrenoceptors), (Trendelenberg et al., 2000).
(§4) Vasa deferentia were obtained from albino MF1 mice weighing 31 to 59 g. The tissues were mounted vertically in 4 ml organ baths. They were then subjected to electrical stimulation of progressively greater intensity followed by an equilibration procedure in which they were exposed to alternate periods of stimulation (2 min) and rest (10 min) until contractions with consistent amplitudes were obtained (Thomas et al., 2004). These contractions were monophasic and isometric and were evoked by 0.5 s trains of pulses of 110% maximal voltage (train frequency 0.1 Hz; pulse frequency 5 Hz; pulse duration 0.5 ms).
Except in experiments with phenylephrine, all drug additions were made to the organ baths after the equilibration period and there was no washout between these additions. In most experiments there was an initial application of a potential antagonist or its vehicle. This was followed 28 min later by a 2 min period of electrical stimulation at the end of which the lowest of a series of concentrations of the twitch inhibitors, R-(+)-WIN55212, CP55940, THC, anandamide, (−)-7-hydroxy-cannabidiol-dimethylheptyl or clonidine, was applied.
After a period of rest, the tissues were electrically stimulated for 2 min and then subjected to a further addition of twitch inhibitor.
This cycle of drug addition, rest and 2 min stimulation was repeated so as to construct cumulative concentration-response curves. Only one concentration-response curve was constructed per tissue. Rest periods were 3 min for clonidine, 13 min for R-(+)-WIN55212, CP55940 and anandamide, 28 min for THC and THCV, and 58 min for (−)-7-hydroxy-cannabidiol-dimethylheptyl.
Experiments were also performed with capsaicin. This drug was added at intervals of 3 min and the tissues were not rested from electrical stimulation between these additions.
In some experiments, cumulative concentration-response curves for THCV were constructed without prior addition of any other compound, again using a cycle of drug addition, 28 min rest and 2 min stimulation.
(§5) Inhibition of the electrically-evoked twitch response of the vas deferens has been expressed in percentage terms and this has been calculated by comparing the amplitude of the twitch response after each addition of a twitch inhibitor with its amplitude immediately before the first addition of the inhibitor. Contractile responses to phenylephrine and β,γ-methylene-ATP have been expressed as increases in tension (g).
Values for EC50, for maximal effect (Emax) and for the s.e.mean or 95% confidence limits of these values have been calculated by nonlinear regression analysis using the equation for a sigmoid concentration-response curve (GraphPad Prism).
as §3
Mean values have been compared using Student's two-tailed t-test for unpaired data or one-way analysis of variance (ANOVA) followed by Dunnett's test (GraphPad Prism). […]

Assay [6] has as its system mouse isolated vas deferens (P2 receptor agonist β,γ-methylene-ATP). Put plainly: Contractile responses of the vas deferens to β,γ-methylene-ATP. The conditions noted are these: for contractions induced by β,γ-methylene-ATP: at 1 μM. Here is the method:
as §4
In experiments with β,γ-methylene-ATP, no electrical stimuli were applied after the equilibration procedure. Log concentration-response curves of β,γ-methylene-ATP were constructed cumulatively without washout. THCV, WIN or drug vehicle were added 30 min before the first addition of β,γ-methylene-ATP, each subsequent addition of which was made immediately after the effect of the previous dose had reached a plateau (dose cycles of 1 to 2 min).
as §5

Assay [7] deals with mouse isolated vas deferens (α1-adrenoceptor agonist phenylephrine hydrochloride). Put plainly: Contractile responses of the vas deferens to phenylephrine. The conditions noted are these: for contractions induced by phenylephrine: at 1 μM. Here is the method: as §4
Only one addition of phenylephrine was made to each tissue and this was carried out 30 min after the addition of THCV, WIN or drug vehicle.
as §5

T3 sequence (P47746 whole entry): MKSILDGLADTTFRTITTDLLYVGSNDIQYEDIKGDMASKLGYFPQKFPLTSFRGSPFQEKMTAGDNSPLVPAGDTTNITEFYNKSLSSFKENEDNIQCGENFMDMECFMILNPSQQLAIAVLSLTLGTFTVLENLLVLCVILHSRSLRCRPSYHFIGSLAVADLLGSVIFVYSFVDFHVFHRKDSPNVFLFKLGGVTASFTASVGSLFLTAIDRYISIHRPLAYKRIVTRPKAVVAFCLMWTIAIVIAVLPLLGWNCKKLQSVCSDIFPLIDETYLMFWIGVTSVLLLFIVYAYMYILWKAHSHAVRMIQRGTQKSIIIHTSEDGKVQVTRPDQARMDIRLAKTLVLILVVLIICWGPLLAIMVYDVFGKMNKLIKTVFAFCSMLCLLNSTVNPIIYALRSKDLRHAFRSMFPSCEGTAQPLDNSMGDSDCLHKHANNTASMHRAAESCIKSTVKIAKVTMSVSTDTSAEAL
T1 sequence (P47746 whole entry): as above
T4 sequence (P34972 whole entry): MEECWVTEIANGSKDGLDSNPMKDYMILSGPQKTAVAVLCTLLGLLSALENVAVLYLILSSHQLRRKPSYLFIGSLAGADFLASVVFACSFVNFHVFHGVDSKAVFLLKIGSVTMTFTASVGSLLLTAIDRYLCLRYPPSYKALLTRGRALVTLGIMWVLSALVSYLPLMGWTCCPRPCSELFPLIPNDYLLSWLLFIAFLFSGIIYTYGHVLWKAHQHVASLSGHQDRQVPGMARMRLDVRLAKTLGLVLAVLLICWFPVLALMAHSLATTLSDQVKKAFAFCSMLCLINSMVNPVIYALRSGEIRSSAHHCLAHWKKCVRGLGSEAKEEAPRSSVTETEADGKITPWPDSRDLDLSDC
T2 sequence (P34972 whole entry): as above

Turning to `CCCc1cc(O)c2c(c1)OC(C)(C)[C@@H]1CCC(C)=C[C@@H]21` [THCV, tetrahydrocannabivarin], the EC50 is 98.2 nM in assay [1] (EC50, displacement of [3H]CP55940, mouse brain membranes, n=4 to 8); 61.3 nM in assay [1] (mean EC50, displacement of [3H]R-(+)-WIN55212, mouse brain membranes, n=4 to 7); 86.8 nM in assay [1] (mean EC50, displacement of [3H]SR141716A, mouse brain membranes, n=4 to 6); 12700 nM in assay [5] (Mus musculus, compound alone, read-out: EC50, inhibition of electrically-evoked contractions). Also, the Ki came to 75.4 nM in assay [1] (mouse brain membranes, Cheng & Prusoff, read-out: mean Ki, displacement of [3H]CP55940 from specific binding sites) and 62.8 nM in assay [2]. For the same compound, the Kb in assay [3] (agonist CP55940, SR141716A 10 nM) was 93.1 nM; in assay [3] (agonist R-(+)-WIN55212), 85.4 nM; in assay [4] it was 10.1 nM; in assay [5] (Mus musculus, twitch inhibitor 7-OH-CBD-DMH, THCV 100 nM, read-out: Mean apparent KB of THCV), greater than 100 nM; in assay [5] (Mus musculus, twitch inhibitor CP55940, THCV 100 nM, read-out: Mean apparent KB of THCV), 10.3 nM; in assay [5] (Mus musculus, twitch inhibitor R-(+)-WIN55212, THCV 10-1000 nM, Tallarida method, read-out: Mean apparent KB of THCV) it was 1.5 nM. In addition, the Kb in assay [5] (Mus musculus, twitch inhibitor THC, THCV 1000 nM, read-out: Mean apparent KB of THCV) was 96.7 nM; in assay [5] (Mus musculus, twitch inhibitor anandamide, THCV 10 nM, read-out: mean apparent KB for antagonism of anandamide), 1.4 nM; in assay [5] (Mus musculus, twitch inhibitor anandamide, THCV 100 nM, read-out: Mean apparent KB of THCV), 1.2 nM; in assay [5] (Mus musculus, twitch inhibitor capsaicin, THCV 100 nM, read-out: Mean apparent KB of THCV), greater than 100 nM; in assay [5] (Mus musculus, twitch inhibitor clonidine, THCV 100 nM, read-out: Mean apparent KB of THCV), greater than 100 nM; in assay [5] (Mus musculus, twitch inhibitor methanandamide, THCV 100 nM, read-out: Mean apparent KB of THCV), 4.6 nM. In addition, the “effect by itself on [35S]GTPγS binding” value in assay [3] (mouse brain membranes, at antagonist concentrations) was “did not affect”; in assay [4] (CHO-hCB2 cell membranes, at antagonist concentrations) it was “did not affect”. For the same compound, the “inhibition of electrically-evoked contractions in presence of SR141716A” value in assay [5] (SR141716A 100 nM, n=7) is reported as “not attenuated”. Further, the “concentration above which electrically-evoked contractions were inhibited” value in assay [5] (SR141716A-independent manner) is “above 3 μM”. Besides, in assay [5] (THCV 100 nM, n=11), the “antagonism of THC-induced twitch inhibition” value is “Nor did 100 nM THCV antagonize”. The “inhibition of electrically-evoked contractions” value in assay [5] (at 1 μM) is recorded as “no detectable inhibitory effect”; in assay [5] (at 31.6 μM) it was “marked inhibition”. In addition, in assay [6], the “contractions induced by β,γ-methylene-ATP” value is recorded as “did not induce any significant reduction”. For the same compound, in assay [6] (at 31.6 μM), the “contractile responses to β,γ-methylene-ATP” value is recorded as “attenuated”. Besides, the “contractions induced by phenylephrine” value in assay [7] is given as “did not induce any significant reduction”. The “contractile responses to phenylephrine hydrochloride” value in assay [7] (at 31.6 μM) is given as “attenuated”.

For `Cc1c(C(=O)c2cccc3ccccc23)c2cccc3c2n1[C@H](CN1CCOCC1)CO3` [R-(+)-WIN55212, reference compound], the “inhibition of electrically-evoked contractions” value in assay [5] (at 1 μM) was “markedly attenuated”. Besides, the “contractions induced by β,γ-methylene-ATP” value in assay [6] is reported as “did not decrease”. For the same compound, the “contractions induced by phenylephrine” value in assay [7] was “did not decrease”.
